Assay type in all cases: biochemical
One test has as its target T1, CDK2/cyclin A (Homo sapiens, UniProt P24941).
T1 construct: made in house; host or cells: CDK2: insect cells (baculovirus); cyclin A: E. coli
Nature of the test: Inhibition of CDK2/cyclin A retinoblastoma kinase activity (Ki; % inhibition). Conditions: apparent Ki, CDK2/cyclin A, Rb substrate. The method in brief: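 Radiometric filter assay of CDK2/proteolyzed cyclin A (baculovirus-expressed human CDK2, 10 or 19 nM) phosphorylating an Rb fragment with 25 μM [³²P/³³P]ATP in pH 7.4 HEPES, 2% DMSO, at 30 °C for 60 or 75 min under initial-rate conditions. Library compounds screened at 30 nM for % inhibition; apparent Ki from concentration series fit to competitive or tight-binding inhibition equations.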

In test [1] the target is T2, human CDK1 (cdc2)/cyclin B (Homo sapiens, UniProt P06493).
T2 construct: purchased New England Biolabs (Beverly, Mass.)
T2 sequence (P06493 whole entry): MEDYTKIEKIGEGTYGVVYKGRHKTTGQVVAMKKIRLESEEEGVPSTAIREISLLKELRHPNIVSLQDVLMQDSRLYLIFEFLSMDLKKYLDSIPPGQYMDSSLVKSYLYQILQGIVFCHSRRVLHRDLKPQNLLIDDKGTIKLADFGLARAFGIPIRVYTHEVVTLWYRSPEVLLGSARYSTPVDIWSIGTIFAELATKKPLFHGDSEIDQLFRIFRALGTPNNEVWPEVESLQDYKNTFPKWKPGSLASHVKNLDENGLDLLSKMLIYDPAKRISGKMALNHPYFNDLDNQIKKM
T2 sequence (P14635 whole entry partner): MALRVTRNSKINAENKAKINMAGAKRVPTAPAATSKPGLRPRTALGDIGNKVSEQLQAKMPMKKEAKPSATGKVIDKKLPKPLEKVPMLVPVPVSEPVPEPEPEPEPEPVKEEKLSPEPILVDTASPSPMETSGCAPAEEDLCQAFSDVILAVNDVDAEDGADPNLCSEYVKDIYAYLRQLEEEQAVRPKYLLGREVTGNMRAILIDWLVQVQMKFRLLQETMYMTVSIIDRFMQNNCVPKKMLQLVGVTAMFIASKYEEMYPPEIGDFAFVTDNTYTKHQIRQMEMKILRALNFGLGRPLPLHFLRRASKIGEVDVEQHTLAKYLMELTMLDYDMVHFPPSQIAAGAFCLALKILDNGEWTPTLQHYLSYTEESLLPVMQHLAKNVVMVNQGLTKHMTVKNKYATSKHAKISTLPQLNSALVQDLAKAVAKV
Nature of the test: Inhibition of CDK1 (cdc2)/cyclin B histone H1 kinase activity. Conditions: histone H1 substrate. Here is the method:
Cyclin-dependent kinase activity was measured by quantifying the enzyme-catalyzed, time-dependent incorporation of radioactive phosphate from [^32P]ATP or [^33P]ATP into a protein substrate. Unless noted otherwise, assays were performed in 96-well plates in a total volume of 50 μL, in the presence of 10 mM HEPES (N-[2-hydroxyethyl]piperazine-N′-[2-ethanesulfonic acid]) (pH 7.4), 10 mM MgCl2, 25 μM adenosine triphosphate (ATP), 1 mg/mL ovalbumin, 5 μg/mL leupeptin, 1 mM dithiothreitol, 10 mM β-glycerophosphate, 0.1 mM sodium vanadate, 1 mM sodium fluoride, 2.5 mM ethylene glycol-bis(β-aminoethyl ether)-N,N,N′N′-tetraacetic acid (EGTA), 2% (v/v) dimethylsulfoxide, and 0.03-0.4 μCi [^32/33P]ATP per reaction. Reactions were initiated with enzyme, incubated at 30° C., and terminated after 20 minutes by the addition of ethylenediaminetetraacetic acid (EDTA) to 250 mM. The phosphorylated substrate was then captured on a nitrocellulose or phosphocellulose membrane using a 96-well filtration manifold, and unincorporated radioactivity was removed by repeated washing with 0.85% phosphoric acid. Radioactivity was quantified by exposing the dried membranes to a phosphorimager.
Compounds from combinatorial libraries were screened from 96-well plates for % inhibition of CDK activity at 30 nM theoretical compound concentration. Inhibition was measured relative to control wells that contained all reaction components including 2% (v/v) DMSO but no compound, after subtraction of background radioactivity measured in the absence of enzyme. Apparent Ki values of discrete compounds were measured by assaying enzyme activity in the presence of different inhibitor compound concentrations and subtracting the background radioactivity measured in the absence of enzyme. The kinetic parameters (kcat, Km for ATP) were measured for each enzyme under the usual assay conditions by determining the dependence of initial rates on ATP concentration. Inhibition data were fit to an equation for competitive inhibition using Kaleidagraph (Synergy Software), or were fit to an equation for competitive tight-binding inhibition using the software KineTic (BioKin, Ltd.).
The complex of human CDK1 (cdc2) and cyclin B was purchased from New England Biolabs (Beverly, Mass.). Alternatively, a CDK1/glutathione-S-transferase-cyclin B1 complex was purified using glutathione affinity chromatography from insect cells that had been co-infected with the corresponding baculovirus expression vectors. The assay was executed as described above at 30° C. using 2.5 units of cdc2/cyclin B, 10 μg Histone H1 protein, and 0.1-0.3 μCi [^32/33P]ATP per assay. Phosphorylated histone substrate was captured by microfiltration on a phosphocellulose P81 membrane and quantified using a phosphorimager as described above. Ki values were measured using the described curve-fitting programs.

Test [2] has as its target T3, Phosphorylated FGF receptor kinase (FGFR1 cytosolic domain) (Homo sapiens, UniProt P11362, C488A/C584S/L457V).
T3 construct: FGFR1 tyrosine kinase (amino acids 456-766); made in house; host or cells: Sf9 insect cells (baculovirus)
Briefly: Inhibition of phosphorylated FGF receptor tyrosine kinase activity (coupled spectrophotometric assay). As to conditions: read-out: P-FGF % Inhibition at 1 μM. Here is the method: Cloning, expression and purification of the cytosolic domain of FGFR1 tyrosine kinase (amino acids 456-766) containing three amino acid substitutions (L457V, C488A, and C584S) were conducted as previously described (Mohammadi, M., Schiessinger, J., & Hubbard, S. R. Cell, 86, (1996) 577-587). This domain was expressed in Sf9 insect cells using a baculovirus expression vector, and protein was purified using conventional techniques. The LCK tyrosine kinase was expressed in insect cells as an N-terminal deletion starting from amino acid 223 to the end of the protein at amino acid 509. The N-terminus of the protein also had two amino acid substitutions, P223M and C224D. Kinases were purified using conventional chromatographic methods.
Tyrosine kinase activity was measured using a coupled, continuous spectrophotometric assay, in which production of phosphorylated poly(Glu,Tyr; 4:1) substrate and ADP is coupled to the pyruvate kinase-catalyzed transfer of a phosphate from phosphoenolpyruvate to ADP, with generation of pyruvate and regeneration of ATP. Pyruvate production is in turn coupled to the lactate dehydrogenase-catalyzed reduction of pyruvate to form lactate, with concomitant conversion of NADH to NAD^+. Loss of NADH is monitored by measuring absorbance at 340 nm (see e.g., Technikova-Dobrova et al., “Spectrophotometric Determination of Functional Characteristics of Protein Kinases with Coupled Enzymatic Assay,” FEBS Letters, 292 (1991), pp. 69-72). Enzyme activity was measured in the presence of 200 mM HEPES (pH 7.5), 2 mM phosphoenolpyruvate, 0.3 mM NADH, 20 mM MgCl2, 100 μM ATP, 5 mM DTT, 5.1 or 25 mM poly (Glu,Tyr) 4:1 for P-FGF or P-LCK assays, respectively, and 15 units/mL each of pyruvate kinase and lactate dehydrogenase. Phosphorylated FGF receptor kinase was present at 100 nM and phosphorylated LCK kinase was present at 50 nM. Assays were performed under initial rate conditions at 37° C., and rates were corrected for any background rate measured in the absence of enzyme. Percent inhibition was calculated relative to control enzyme assayed in the presence of 2% (v/v) DMSO.

This note sets out measurements from patent US6720346B2, “Thiazole benzamide derivatives and pharmaceutical compositions for inhibiting cell proliferation” (Agouron Pharmaceuticals, Inc., priority 2001, dated 2004).

The structures appear in SMILES notation. Counter-ions that a name gives are not always drawn.

T3 sequence (P11362 456-766 L457V/C488A/C584S): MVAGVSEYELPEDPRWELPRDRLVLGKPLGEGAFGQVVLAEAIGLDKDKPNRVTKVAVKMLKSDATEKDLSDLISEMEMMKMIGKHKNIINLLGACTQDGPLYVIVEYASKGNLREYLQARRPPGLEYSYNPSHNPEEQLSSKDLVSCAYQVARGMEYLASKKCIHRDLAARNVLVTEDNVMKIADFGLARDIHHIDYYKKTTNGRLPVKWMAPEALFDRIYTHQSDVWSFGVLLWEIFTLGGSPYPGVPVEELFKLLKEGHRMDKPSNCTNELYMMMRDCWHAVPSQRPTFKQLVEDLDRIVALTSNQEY

Usually inhibition stands for the relative decrease from the control value, in per cent. Consider `Nc1nc(Nc2ccc(C(=O)NCCN3CCCCC3)cc2)sc1C(=O)c1c(F)cccc1F` [Example A15, 4-[4-Amino-5-(2,6-difluoro-benzoyl)-thiazol-2-ylamino]-N-(2-piperidin-1-yl-ethyl)-benzamide], for which the Ki at CDK2/cyclin A is 150 nM; in test [1], 68 nM. Moreover, the inhibition at 1 µM in test [2] turned out to be 0%.
On to `Nc1nc(Nc2ccc(C(=O)Nc3ccc(N4CCOCC4)cc3)cc2)sc1C(=O)c1c(F)cccc1F` [Example A21], for which the Ki on CDK2/cyclin A turned out to be 105 nM; in test [1], 120 nM. For the same compound, in test [2], the inhibition at 1 µM was 0%.
Regarding `CN1CCC[C@H]1CNC(=O)c1ccc(Nc2nc(N)c(C(=O)c3c(F)cccc3F)s2)cc1` [Example A31, 4-[4-Amino-5-(2,6-difluoro-benzoyl)-thiazol-2-ylamino]-N-(1-methyl-pyrrolidin-2S-yl-methyl)-benzamide Dihydrochloride], the Ki came out at 49 nM on CDK2/cyclin A and 82 nM in test [1]. The inhibition at 1 µM in test [2] is 0%.
As to `Nc1nc(Nc2ccc(C(=O)NCCc3ccc(O)cc3)cc2)sc1C(=O)c1c(F)cccc1F` [Example A14, 4-[4-Amino-5-(2,6-difluoro-benzoyl)-thiazol-2-ylamino]-N-[2-(4-hydroxy-phenyl)-ethyl]-benzamide], the Ki at CDK2/cyclin A was 60 nM; in test [1], 42 nM. Also, in test [2], the inhibition at 1 µM was determined as 0%.
On the same counts, the results for `CC(CN(C)C)NC(=O)c1ccc(Nc2nc(N)c(C(=O)c3c(F)cccc3F)s2)cc1` (stereo not drawn) [Example A20, 4-[4-Amino-5-(2,6-difluoro-benzoyl)-thiazol-2-ylamino]-N-(2-dimethylamino-1RS-methyl-ethyl)-benzamide Hydrochloride Salt] are 162 nM, 150 nM and 0%.
